According to patent US10137202B2 (priority 2014, dated 2018):
Square brackets hold non-standard residues; d marks the D form. Peptide text beside a SMILES is read from it. * marks the point of attachment. Dolaproine = CO[C@@H]([C@@H]1CCCN1)[C@@H](C)C(=O)O; Dil = CC[C@H](C)[C@H](NC)[C@@H](CC(=O)O)OC; X3 = C[C@@H](N*)[C@@H](O)c1ccccc1; NMeV = CN[C@H](C(=O)O)C(C)C

Tested on: HT1080 cells
Format: cell-based, human
Details: read-out: IC50 (CPA assay; nM)

Work on `CC[C@H](C)[C@@H]([C@@H](CC(=O)N1CCC[C@H]1[C@H](OC)[C@@H](C)C(=O)N[C@H](C)[C@@H](O)c1ccccc1)OC)N(C)C(=O)[C@@H](NC(=O)[C@@H](NC)C(C)C)C(C)C` [MMAE, reference compound] (H-[NMeV]V[Dil][Dolaproine]-X3) yielded an IC50 of 0.1 to 0.6 nM.
